{"source": "ChEMBL document CHEMBL4385672", "about": "“Design, synthesis and biological evaluation of 2-(3,4-dimethoxyphenyl)-6 (1,2,3,6-tetrahydropyridin-4-yl)imidazo[1,2-a]pyridine analogues as antiproliferative agents” (Bioorg Med Chem Lett, 2019)", "key": {"B16-F10 [1]": {"test_system": "B16-F10", "assay": "Antiproliferative activity against mouse B16F10 cells incubated for 48 hrs by MTT assay", "format": "functional, cell-based", "details": "B16-F10, 48 h"}, "[2]": {"assay": "Selectivity index, ratio of IC50 for cytotoxicity in HEK293 cells assessed as reduction in cell viability incubated for 48 hrs by MTT assay to IC50 for antiproliferative activity against mouse B16F10 cells incubated for 48 hrs by MTT assay", "format": "toxicity, cell-based", "details": "read-out: Ratio IC50"}, "B16-F10 [3]": {"test_system": "B16-F10", "assay": "Induction of apoptosis in mouse B16F10 cells assessed as late apoptosis cells level at 7 uM incubated for 48 hrs by Annexin V-FITC and PI staining based flow cytometry (reference value: 0.02 +/- 0.21%)", "format": "functional"}, "A549 [4]": {"test_system": "A549", "assay": "Antiproliferative activity against human A549 cells incubated for 48 hrs by MTT assay", "format": "functional, cell-based", "details": "A549, 48 h"}, "HEK293": {"test_system": "HEK293", "assay": "Cytotoxicity in HEK293 cells assessed as reduction in cel viability incubated for 48 hrs by MTT assay", "format": "cell-based", "details": "Homo sapiens, HEK293, 48 h"}, "[5]": {"assay": "Selectivity index, ratio of IC50 for cytotoxicity in HEK293 cells assessed as reduction in cell viability incubated for 48 hrs by MTT assay to IC50 for antiproliferative activity against human A549 cells incubated for 48 hrs by MTT assay", "format": "toxicity, cell-based", "details": "read-out: Ratio IC50"}, "B16-F10 [6]": {"test_system": "B16-F10", "assay": "Antiproliferative activity against mouse B16F10 cells at 10 to 100 uM incubated for 48 hrs by MTT assay", "format": "functional, cell-based"}, "B16-F10 [7]": {"test_system": "B16-F10", "assay": "Induction of apoptosis in mouse B16F10 cells assessed as early apoptosis cells level at 7 uM incubated for 48 hrs by Annexin V-FITC and PI staining based flow cytometry (reference value: 0.03 +/- 0.013%)", "format": "functional"}, "HeLa [8]": {"test_system": "HeLa", "assay": "Antiproliferative activity against human HeLa cells incubated for 48 hrs by MTT assay", "format": "functional, cell-based"}, "HeLa [9]": {"test_system": "HeLa", "assay": "Antiproliferative activity against human HeLa cells at 10 to 100 uM incubated for 48 hrs by MTT assay", "format": "functional, cell-based"}, "[10]": {"assay": "Selectivity index, ratio of IC50 for cytotoxicity in HEK293 cells assessed as reduction in cell viability incubated for 48 hrs by MTT assay to IC50 for antiproliferative activity against human HeLa cells incubated for 48 hrs by MTT assay", "format": "toxicity, cell-based", "details": "read-out: Ratio IC50"}, "A549 [11]": {"test_system": "A549", "assay": "Antiproliferative activity against human A549 cells at 10 to 100 uM incubated for 48 hrs by MTT assay", "format": "functional, cell-based"}, "MCF7": {"test_system": "MCF7", "assay": "Antiproliferative activity against human MCF7 cells", "format": "functional, cell-based"}}, "note": "The source made the active and inactive calls. The calls are words filed in the database; no cut-off is given here."}
{"smiles": "COc1ccc(-c2cn3cc(C4=CCN(C(=O)C(C)(C)C)CC4)ccc3n2)cc1OC", "values": [{"measurement": "IC50", "setting": "B16-F10 [1]", "value": 7.1, "unit": "µM"}, {"measurement": "selectivity ratio at 48 h", "setting": "[2]", "value": "10 to 14"}, {"measurement": "Activity", "setting": "B16-F10 [3]", "value": 57.3, "unit": "%"}, {"measurement": "IC50", "setting": "A549 [4]", "value": 4.34, "unit": "µM"}, {"measurement": "IC50", "setting": "HEK293", "value": 66.6, "unit": "µM"}, {"measurement": "selectivity ratio at 48 h", "setting": "[5]", "value": "10 to 14"}, {"measurement": "Activity", "setting": "B16-F10 [6]", "value": "Active"}, {"measurement": "Activity", "setting": "B16-F10 [7]", "value": 25.4, "unit": "%"}, {"measurement": "IC50", "setting": "HeLa [8]", "value": 5.48, "unit": "µM"}, {"measurement": "Activity", "setting": "HeLa [9]", "value": "Active"}, {"measurement": "selectivity ratio at 48 h", "setting": "[10]", "value": "10 to 14"}, {"measurement": "Activity", "setting": "A549 [11]", "value": "Active"}]}
{"smiles": "COc1ccccc1[Se]c1c(-c2ccccc2)nc2ccc(F)cn12", "values": [{"measurement": "IC50", "setting": "MCF7", "value": 12.5, "unit": "µM"}]}
